Experimental data taken from patent US7781191B2, “Treatment of biomass to obtain a target chemical” (E. I. du Pont de Nemours and Company, priority 2005, dated 2010).

Tested on: Z. mobilis strain 8b
Details: fermentation medium pH 6.0, 30° C., 150 rpm; supplemented with 6 g/L acetamide or 7.2 g/L acetic acid vs unsupplemented control; FIG. 1
Excerpt: Fermentation medium was composed of 10 g/L yeast extract, 2 g/L KH2PO4, 70 g/L glucose, 40 g/L xylose and 0.1 M MES buffer.

Structure (SMILES)	final density / cell yield (as measured by dry cell mass) of Z. mobilis	growth rate of Z. mobilis
CC(N)=O [acetamide]	no influence	no influence
CC(=O)O [acetic acid]	–	reduced growth rate
